Tests used:
[1] = Antiproliferative activity against human L02 cells assessed as reduction in cell viability incubated for 48 hrs by CCk-8 assay; type: toxicity, cell-based
MDA-MB-231 [2] = experiment: Induction of cell cycle arrest in human MDA-MB-231 cells assessed as accumulation of cells at G1 phase at 82.5 nM incubated for 48 hrs by flow cytometry analysis (reference value: 47.44 %); type: functional
MDA-MB-231 [3] = experiment: Induction of cell cycle arrest in human MDA-MB-231 cells assessed as accumulation of cells at G2 phase at 82.5 nM incubated for 48 hrs by flow cytometry analysis (reference value: 16.05 %); type: functional
MDA-MB-231 [4] = experiment: Induction of cell cycle arrest in human MDA-MB-231 cells assessed as accumulation of cells at S phase at 0.33 uM incubated for 48 hrs by flow cytometry analysis (reference value: 36.51%); type: functional
MDA-MB-231 [5] = experiment: Induction of cell cycle arrest in human MDA-MB-231 cells assessed as accumulation of cells at G2 phase at 0.33 uM incubated for 48 hrs by flow cytometry analysis (reference value: 16.05 %); type: functional
MDA-MB-231 [6] = experiment: Induction of apoptosis in human MDA-MB-231 cells assessed as viable cells at 82.5 nM incubated for 48 hrs by Annexin-V/FITC-PI staining based flow cytometry analysis (reference value: 93.74 %); type: functional; conditions: read-out: Activity
MDA-MB-231 [7] = experiment: Induction of apoptosis in human MDA-MB-231 cells assessed as early apoptotic cells at 82.5 nM incubated for 48 hrs by Annexin-V/FITC-PI staining based flow cytometry analysis (reference value: 2.93 %); type: functional
MDA-MB-231 [8] = experiment: Induction of apoptosis in human MDA-MB-231 cells assessed as early apoptotic cells at 0.165 uM incubated for 48 hrs by Annexin-V/FITC-PI staining based flow cytometry analysis (reference value: 2.93 %); type: functional
MDA-MB-231 [9] = experiment: Induction of apoptosis in human MDA-MB-231 cells assessed as necrotic cells at 0.165 uM incubated for 48 hrs by Annexin-V/FITC-PI staining based flow cytometry analysis (reference value: 0.99 %); type: functional
MDA-MB-231 [10] = experiment: Induction of apoptosis in human MDA-MB-231 cells assessed as necrotic cells at 0.33 uM incubated for 48 hrs by Annexin-V/FITC-PI staining based flow cytometry analysis (reference value: 0.99 %); type: functional
MDA-MB-231 [11] = experiment: Inhibition of cell migration in human MDA-MB-231 cells assessed as wound healing rate at 0.165 uM measured for 24 hrs by scratch wound healing assay (Rvb= 230.22 +/- 32.21 %); type: functional; design: scale not given: the % may be the effect or the level left

## C[C@H]1CCC/C=C/[C@@H]2C[C@H](O)C[C@H]2[C@H](OC(=O)CCCC(=O)OCCOc2ccc(-c3cc(=S)ss3)cc2)/C=C/C(=O)O1
[1]
  IC50 at 48 h: 1750 nM
MDA-MB-231 [2]
  Activity: 56.27%
MDA-MB-231 [3]
  Activity: 13.5%
MDA-MB-231 [4]
  Activity: 22.99%
MDA-MB-231 [5]
  Activity: 7.13%
MDA-MB-231 [6]
  viability at 0.0825 µM: 82%
MDA-MB-231 [7]
  Activity: 10.01%
MDA-MB-231 [8]
  Activity: 10.14%
MDA-MB-231 [9]
  Activity: 1.87%
MDA-MB-231 [10]
  Activity: 4.11%
MDA-MB-231 [11]
  Activity: 465.92%

Source: ChEMBL document CHEMBL5325456, “5-(4-Hydroxyphenyl)-3H-1,2-dithiole-3-thione derivatives of brefeldin A: Design, synthesis and cytotoxicity in MDA-MB-231 human breast cancer cells” (Bioorg Med Chem, 2023)
